“And” between values parts separate entries of the source, which are not always exact repeats. Equal values may be shown once. Bridges are numbered along the chain shown (N, C = ends). Where no end group is shown, it is not given here.
Key:
[1] = test system: Claudin-5 at tight junction of mouse brain endothelial bEnd.3 cells; assay: Claudin-5 immunocytochemistry at tight junction in mouse brain endothelial cell cultures; format: cell-based
Experimental: To understand the effect of NX218 on the TEER and permeability of mouse brain endothelial cells in examples 3 and 4, the levels of the tight junction protein Claudin-5 were assessed using immunocytochemistry.
(§1) Mouse brain endothelial cells (bEnd.3, American Type Culture Collection) were cultured in DMEM supplemented with 10% fetal FBS and 2 mM sodium pyruvate in a 5% CO2 incubator at 37° C.
bEnd.3 cells were seeded on 1% fibronectin-coated Nunc Lab-Tek II Chamber Slides in culture medium (1×10^5 cells per well in 300 μL). Two days after seeding, cells were treated with vehicle or NX218 (1, 10 and 100 μM) for 1, 2 or 3 days. Cells were then fixed for 10 min at room temperature (RT) with 4% paraformaldehyde in phosphate buffered saline (PBS), washed twice with PBS and incubated with 5% normal goat serum and 0.05% Triton X-100 in PBS for 1 h at RT before overnight incubation with polyclonal rabbit anti-claudin-5 ( 1/100; 34-1600, Invitrogen) at 4° C. Cells were then washed three times with PBS and incubated with goat anti-rabbit Cy3 secondary antibody ( 1/500; ab6939, Abcam) for 2 h at RT and counterstained with Hoechst 33258 to visualize nuclei. The slide was removed from the chamber and mounted with Aqua Poly/Mount before visualization by confocal laser scanning/microscopy. Claudin-5 immunoreactivity (intensity) at membrane localization was finally quantified to evaluate Claudin-5 protein levels. The data are expressed as a percentage of the control condition.
A second independent experiment using the protocol described at example 5 was performed. Pooling the data from the 2 experiments (the first experiment was done in triplicate, the 2nd in duplicate, n=5) improves the statistical power and allow to reach statistical significance for a tendency observed at 72 hours timepoint.

[2] = test system: Occludin in mouse brain endothelial bEnd.3 cells; assay: Occludin western blot in mouse brain endothelial cell cultures; format: cell-based; conditions: for Expression of Occludin, Average: average of N1-N8
Experimental: To understand the effect of NX218 on the TEER and permeability of mouse brain endothelial cells, the levels of the tight junction protein Occludin were assessed using Western Blot.
as §1
bEnd.3 cells were seeded on 12-well plates (2.5×10^5 cells per well in 1,000 μL) for western-blot analyses. Two days after seeding, cells were treated with vehicle or NX218 (1, 10 and 100 μM) for 24 hours. Proteins were isolated from the cell layers with lysis buffer (62.5 mM Tris, 2% SDS, 10 mM dithiothreitol, 10 μL protease inhibitor cocktail/100 mL (Sigma-Aldrich)), centrifugated at 12,000 r.p.m for 20 min at 4° C., and supernatants were used for analysis of tight junction proteins. Protein concentrations were determined with the Pierce BCA protein assay (Thermo Scientific). Ten (10) μL of samples and standards (working range=125-2000 μg/mL) were loaded in duplicate into a 96-well plate and 200 μL of working reagent (50 parts BCA reagent A with 1 part BCA reagent B) were added to each well, mixed on a shaker and incubated at 37° C. for 30 min. The plate was cooled to RT and the absorbance read at 562 nm. Protein concentrations were calculated from a standard curve. Ten (10) μg total protein were loaded per well for separation by SDS-polyacrylamide gel electrophoresis (12% acrylamide). Gels were transferred onto methanol-activated polyvinylidene difluoride membranes (Merck Millipore) via semi-dry transfer. Transferred membranes were reactivated with methanol and blocked under slight agitation in tris-buffered saline (TBS)-Tween-20 containing 3% weight/volume Marvel non-fat dry milk for 1 h at RT. Blocked membranes were washed three times with TBS-Tween-20 and treated with primary rabbit polyclonal antibodies against Occludin (Novus Biotech, ref. NBP1-87402, 65 kDa, 1/1000 dilution) overnight at 4° C. Membranes were washed three times for 5 min in TBS-Tween-20 and incubated with horseradish peroxidase-conjugated goat anti-rabbit secondary antibody (A6154, Sigma-Aldrich) diluted 1/2,000 in TBS-Tween-20 for 2 h at RT. Secondary antibody was removed and membranes washed four times for 5 min in TBS-Tween-20. Blots were developed by enhanced chemiluminescence (ECL). A 1:1 mix of WesternBright ECL Luminol/enhancer solution and Peroxide Chemiluminescent solution (Advansta) was incubated at RT for 2 min before being directly added onto washed blots. The LiCor C-Digit Blot Scanner was used to detect chemiluminescence over a 12-minute exposure time.

With “W-S-G-W-S-S-C-S-R-S-C-G (WSGWSSCSRSCG; disulfide 7-11 (inferred)) [NX218]” as the substance, how does the “Claudin-5 levels, result in words” value ([1]; 24 hours, NX218 at 10 and 100 μM) read?
The value was “significant increase in Claudin-5 levels”.

What about the “Expression of Claudin-5 at tight junction” value ([1]; FIG. 3, 24-hour treatment) of the same substance?
The value was “increases the expression of Claudin-5 at tight junction”.

What about the “Expression of Claudin-5 at tight junction” value ([1]; FIG. 5, 72-hour treatment) of the same substance?
The value was “increases the expression of Claudin-5 at tight junction”.

What about the “Expression of Claudin-5 at tight junction, Average” value ([1]; NX218 1 μM, 24 hours, bEnd.3, average of N1-N6) of the same substance?
Its value is 112.5 % of Control.

And the “Expression of Claudin-5 at tight junction” value ([1]; NX218 1 μM, 24 hours, bEnd.3, individual replicates N1-N6)?
Its value is 108.1 % of Control and 99.96 % of Control and 119.3 % of Control and 99.61 % of Control and 140.4 % of Control and 107.5 % of Control.

And the “Expression of Claudin-5 at tight junction, Average” value ([1]; NX218 1 μM, 48 hours, bEnd.3, average of N1-N6)?
Its value is 80.63 % of Control.

And the “Expression of Claudin-5 at tight junction” value ([1]; NX218 1 μM, 48 hours, bEnd.3, individual replicates N1-N6)?
The value was 76.07 % of Control and 52.45 % of Control and 76.37 % of Control and 93.88 % of Control and 102.1 % of Control and 82.89 % of Control.

What about the “Expression of Claudin-5 at tight junction, Average” value ([1]; NX218 1 μM, 72 hours, bEnd.3, first experiment (Table 9), average of N1-N4) of the same substance?
Its value is 81.69 % of Control.

What about the “Expression of Claudin-5 at tight junction” value ([1]; NX218 1 μM, 72 hours, bEnd.3, first experiment (Table 9), individual replicates N1-N4) of the same substance?
The value was 77.15 % of Control and 90.23 % of Control and 103.8 % of Control and 55.53 % of Control.

And the “Expression of Claudin-5 at tight junction, Average” value ([1]; NX218 1 μM, 72 hours, bEnd.3, pooled data of 2 experiments (Table 12), average of N1-N7)?
The value was 96.00 % of Control.

What about the “Expression of Claudin-5 at tight junction” value ([1]; NX218 1 μM, 72 hours, bEnd.3, pooled data of 2 experiments (Table 12), individual replicates N1-N7) of the same substance?
The value was 86.80 % of Control and 107.60 % of Control and 99.90 % of Control and 104.20 % of Control and 92.70 % of Control and 103.50 % of Control and 77.10 % of Control.

And the “Expression of Claudin-5 at tight junction, Average” value ([1]; NX218 10 μM, 24 hours, bEnd.3, average of N1-N6)?
Its value is 151.7 % of Control.

And the “Expression of Claudin-5 at tight junction” value ([1]; NX218 10 μM, 24 hours, bEnd.3, individual replicates N1-N6)?
The value was 126.9 % of Control and 154.4 % of Control and 137 % of Control and 121.3 % of Control and 169.4 % of Control and 200.9 % of Control.

And the “Expression of Claudin-5 at tight junction, Average” value ([1]; NX218 10 μM, 48 hours, bEnd.3, average of N1-N6)?
The value was 97.8 % of Control.

And the “Expression of Claudin-5 at tight junction” value ([1]; NX218 10 μM, 48 hours, bEnd.3, individual replicates N1-N6)?
The value was 66.36 % of Control and 83.18 % of Control and 120.8 % of Control and 145.7 % of Control and 97.51 % of Control and 73.25 % of Control.

What about the “Expression of Claudin-5 at tight junction, Average” value ([1]; NX218 10 μM, 72 hours, bEnd.3, first experiment (Table 9), average of N1-N4) of the same substance?
The value was 70.23 % of Control.

And the “Expression of Claudin-5 at tight junction” value ([1]; NX218 10 μM, 72 hours, bEnd.3, first experiment (Table 9), individual replicates N1-N4)?
The value was 56.03 % of Control and 94.63 % of Control and 58.42 % of Control and 71.86 % of Control.

What about the “Expression of Claudin-5 at tight junction, Average” value ([1]; NX218 10 μM, 72 hours, bEnd.3, pooled data of 2 experiments (Table 12), average of N1-N7) of the same substance?
The value was 97.80 % of Control.

What about the “Expression of Claudin-5 at tight junction” value ([1]; NX218 10 μM, 72 hours, bEnd.3, pooled data of 2 experiments (Table 12), individual replicates N1-N7) of the same substance?
Its value is 71.70 % of Control and 116.80 % of Control and 122.30 % of Control and 113.50 % of Control and 97.80 % of Control and 75.30 % of Control and 87.00 % of Control.

And the “Expression of Claudin-5 at tight junction, Average” value ([1]; NX218 100 μM, 24 hours, bEnd.3, average of N1-N6)?
Its value is 180.5 % of Control.

What about the “Expression of Claudin-5 at tight junction” value ([1]; NX218 100 μM, 24 hours, bEnd.3, individual replicates N1-N6) of the same substance?
The value was 173.3 % of Control and 212.5 % of Control and 249.5 % of Control and 129 % of Control and 161.7 % of Control and 157.1 % of Control.

What about the “Expression of Claudin-5 at tight junction, Average” value ([1]; NX218 100 μM, 48 hours, bEnd.3, average of N1-N6) of the same substance?
The value was 98.79 % of Control.

What about the “Expression of Claudin-5 at tight junction” value ([1]; NX218 100 μM, 48 hours, bEnd.3, individual replicates N1-N6) of the same substance?
Its value is 88.39 % of Control and 55.18 % of Control and 80.87 % of Control and 122.7 % of Control and 115.5 % of Control and 130.1 % of Control.

And the “Expression of Claudin-5 at tight junction, Average” value ([1]; NX218 100 μM, 72 hours, bEnd.3, first experiment (Table 9), average of N1-N4)?
The value was 106.6 % of Control.

What about the “Expression of Claudin-5 at tight junction” value ([1]; NX218 100 μM, 72 hours, bEnd.3, first experiment (Table 9), individual replicates N1-N4) of the same substance?
Its value is 121.8 % of Control and 116 % of Control and 81.03 % of Control and 107.7 % of Control.

What about the “Expression of Claudin-5 at tight junction, Average” value ([1]; NX218 100 μM, 72 hours, bEnd.3, pooled data of 2 experiments (Table 12), average of N1-N7) of the same substance?
Its value is 119.10 % of Control.

And the “Expression of Claudin-5 at tight junction” value ([1]; NX218 100 μM, 72 hours, bEnd.3, pooled data of 2 experiments (Table 12), individual replicates N1-N7)?
The value was 134.20 % of Control and 124.40 % of Control and 109.30 % of Control and 120.30 % of Control and 130.70 % of Control and 105.10 % of Control and 109.40 % of Control.

What about the “Claudin-5 levels, result in words” value ([1]; NX218 at 100 μM, pooled experiments, 72 hours) of the same substance?
The value was “Increases of Claudin-5 levels were maintained for at-least 72 hours”.

What about the “Claudin-5 levels, result in words” value ([1]; after 2 or 3 days treatment (Tables 8, 9)) of the same substance?
Its value is “levels were similar between control and NX218 conditions”.

What about the “Increase of occludin protein levels vs control” value (shortened to “Increase”) ([2]; 1 μM, 24 h, bEnd.3, p=0.0309) of the same substance?
Its value is “+26.3%”.

And the “Increase” value ([2]; 10 μM, 24 h, bEnd.3, p=0.0053)?
Its value is “+41.1%”.

And the “Increase” value ([2]; 100 μM, 24 h, bEnd.3, p=0.0112)?
Its value is “+36.8%”.

And the “Occludin protein levels, result in words” value ([2]; 1, 10 and 100 μM, 24 h, compared with control)?
Its value is “significant increase of occludin protein levels”.

What about the “Expression of Occludin” value ([2]; FIG. 6, 24-hour treatment) of the same substance?
The value was “increases the expression of Occludin”.

And the “Expression of Occludin, Average” value ([2]; NX218 1 μM, 24 hours, bEnd.3, western blot)?
Its value is 126.30 % of Control.

What about the “Expression of Occludin” value ([2]; NX218 1 μM, 24 hours, bEnd.3, western blot, individual replicates N1-N8) of the same substance?
The value was 124.20 % of Control and 120.60 % of Control and 92.30 % of Control and 152.80 % of Control and 146.80 % of Control and 135.50 % of Control and 125.00 % of Control and 113.00 % of Control.

What about the “Expression of Occludin, Average” value ([2]; NX218 10 μM, 24 hours, bEnd.3, western blot) of the same substance?
Its value is 141.10 % of Control.

What about the “Expression of Occludin” value ([2]; NX218 10 μM, 24 hours, bEnd.3, western blot, individual replicates N1-N8) of the same substance?
The value was 124.20 % of Control and 123.30 % of Control and 114.20 % of Control and 93.50 % of Control and 187.30 % of Control and 166.20 % of Control and 176.60 % of Control and 143.50 % of Control.

What about the “Expression of Occludin, Average” value ([2]; NX218 100 μM, 24 hours, bEnd.3, western blot) of the same substance?
The value was 136.80 % of Control.

What about the “Expression of Occludin” value ([2]; NX218 100 μM, 24 hours, bEnd.3, western blot, individual replicates N1-N8) of the same substance?
Its value is 112.10 % of Control and 103.80 % of Control and 111.20 % of Control and 188.40 % of Control and 123.40 % of Control and 158.40 % of Control and 122.20 % of Control and 174.50 % of Control.

Source: US20250152660A1, “SCO-spondin-derived polypeptides for treating biological barriers dysfunction” (AXOLTIS PHARMA, priority 2021, published 2025)
